Source: PubChem BioAssay (NCI)
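Dose response: 5 concentrations. Exposure: 48 h. Format: 96-well plates. Endpoint: linear interpolation; highest concentration if not reached. GI50: concentration for 50% inhibition of growth. TGI marks complete inhibition of growth.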

Columns and labels:
Experiment in all cases: NCI tumour cell line growth inhibition, 48 h
[1] = tested on: SNB-19 CNS
[2] = tested on: RXF 393 renal
[3] = tested on: HCT-116 colon
[4] = tested on: MOLT-4 leukemia
[5] = tested on: SK-MEL-28 melanoma
[6] = tested on: SF-295 CNS
[7] = tested on: HCC-2998 colon
[8] = tested on: UACC-62 melanoma
[9] = tested on: UO-31 renal
[10] = tested on: KM12 colon

SMILES	TGI [1] [µM]	TGI [2] [µM]	TGI [3] [µM]	TGI [4] [µM]	TGI [5] [µM]	TGI [6] [µM]	TGI [7] [µM]	TGI [8] [µM]	TGI [9] [µM]	TGI [10] [µM]	GI50 [5] [nM]	GI50 [6] [nM]	GI50 [7] [µM]	GI50 [8] [nM]	GI50 [9] [µM]	GI50 [1] [nM]	GI50 [2] [pM]	GI50 [3] [pM]	GI50 [4] [pM]
CC(OC(C)(C)C)[C@H](NC(=O)OCC(Cl)(Cl)Cl)C(=O)O (stereo partly drawn)	> 100	> 100	> 100	> 100	> 100	> 100	> 100	> 100	> 100	> 100									
O=C(Cn1c[n+](CC(=O)c2ccc(-c3ccccc3)cc2)c2ccccc21)Nc1cccc2cccnc12					2.83	3.26	2.74	2.84	33.3		1510	1730	1.4	1400	14.2				
O=C(O)CCC(NC(=O)c1ccc(Nc2nc3cc(C(F)(F)F)ccc3nc2-c2ccccc2)cc1)C(=O)O (stereo not drawn)	> 100	94.8	> 100	> 100	> 100	> 100	> 100	> 100	> 100	> 100									
COc1ccc2cc(/C=N/NC(=O)Nc3ccccc3)ccc2c1	> 100		> 100	> 100		> 100	> 100	> 100	> 100	> 100									
CC1(CCOCc2ccccc2)NC(=O)NC1=O (stereo not drawn)	> 100	> 100	> 100	> 100	> 100	> 100	> 100	> 100	> 100	> 100									
CC1(C)N=C(N)N=C(N)N1c1ccc(CCc2ccccc2)cc1	> 41.1	> 100	> 100	> 100	> 86.7	> 100	42.1	> 100	> 100	> 43.1									
NCc1ccccc1-c1c2nc(c(-c3ccccc3CN)c3ccc([nH]3)c(-c3ccccc3CN)c3nc(c(-c4ccccc4CN)c4ccc1[nH]4)C=C3)C=C2	43.5	43	32.5		43.4		76.3	54.1	42.6	50.7									
CCC(/C=C/C1OC(=O)C=CC1C)=C\C(C)C/C=C/C(C)=C/C(C)C(=O)C(C)C(O)C(C)C/C(C)=C/C(=O)O (stereo not drawn)	13.2	3.56				2.39					0.00451	0.0179	2.44	0.00223	3.12e-05	0.0253	< 1	< 1	2.33
Cc1[nH]nc(C(F)(F)F)c1N=NN1CCOCC1	30.4	25.1	6.12	5.32	32.7	28.1	6.11	23.5	7.04	21.9									
